{"source": "BigSolDB 2.1", "data": [{"smiles": "O=C(O)c1cc(O)c(O)c(O)c1", "values": [{"measurement": "solubility (mole fraction)", "setting": "in water, 292.18 K", "result": 0.00098}, {"measurement": "solubility (mole fraction)", "setting": "in water, 298 K", "result": 0.0011}, {"measurement": "solubility (mole fraction)", "setting": "in water, 303.09 K", "result": 0.00142}, {"measurement": "solubility (mole fraction)", "setting": "in water, 308.21 K", "result": 0.0019}, {"measurement": "solubility (mole fraction)", "setting": "in water, 313.04 K", "result": 0.00244}, {"measurement": "solubility (mole fraction)", "setting": "in water, 318.15 K", "result": 0.00328}, {"measurement": "solubility (mole fraction)", "setting": "in water, 323.15 K", "result": 0.00427}, {"measurement": "solubility (mole fraction)", "setting": "in water, 327.85 K", "result": 0.00523}, {"measurement": "solubility (mole fraction)", "setting": "in water, 333.15 K", "result": 0.00693}]}, {"smiles": "COc1ccc(C(=O)O)cc1OC", "values": [{"measurement": "solubility (mole fraction)", "setting": "in 2-butanone, 278.95 K", "result": 0.0068}, {"measurement": "solubility (mole fraction)", "setting": "in 2-butanone, 283.15 K", "result": 0.0077}, {"measurement": "solubility (mole fraction)", "setting": "in 2-butanone, 287.95 K", "result": 0.0089}, {"measurement": "solubility (mole fraction)", "setting": "in 2-butanone, 293.32 K", "result": 0.0104}, {"measurement": "solubility (mole fraction)", "setting": "in 2-butanone, 298.13 K", "result": 0.012}, {"measurement": "solubility (mole fraction)", "setting": "in 2-butanone, 303.15 K", "result": 0.014}, {"measurement": "solubility (mole fraction)", "setting": "in 2-butanone, 308.37 K", "result": 0.0162}, {"measurement": "solubility (mole fraction)", "setting": "in 2-butanone, 313.05 K", "result": 0.0184}, {"measurement": "solubility (mole fraction)", "setting": "in 2-butanone, 318.15 K", "result": 0.0212}, {"measurement": "solubility (mole fraction)", "setting": "in 2-butanone, 323.49 K", "result": 0.0246}, {"measurement": "solubility (mole fraction)", "setting": "in ethanol, 278.15 K", "result": 0.0035}, {"measurement": "solubility (mole fraction)", "setting": "in ethanol, 282.93 K", "result": 0.0042}, {"measurement": "solubility (mole fraction)", "setting": "in ethanol, 288.21 K", "result": 0.0051}, {"measurement": "solubility (mole fraction)", "setting": "in ethanol, 293.08 K", "result": 0.0062}, {"measurement": "solubility (mole fraction)", "setting": "in ethanol, 298 K", "result": 0.0074}, {"measurement": "solubility (mole fraction)", "setting": "in ethanol, 303.33 K", "result": 0.0093}, {"measurement": "solubility (mole fraction)", "setting": "in ethanol, 307.9 K", "result": 0.011}, {"measurement": "solubility (mole fraction)", "setting": "in ethanol, 313.3 K", "result": 0.0136}, {"measurement": "solubility (mole fraction)", "setting": "in ethanol, 317.15 K", "result": 0.0161}, {"measurement": "solubility (mole fraction)", "setting": "in ethanol, 323.3 K", "result": 0.0203}, {"measurement": "solubility (mole fraction)", "setting": "in ethyl acetate, 278.3 K", "result": 0.0037}, {"measurement": "solubility (mole fraction)", "setting": "in ethyl acetate, 283.01 K", "result": 0.0044}, {"measurement": "solubility (mole fraction)", "setting": "in ethyl acetate, 288.05 K", "result": 0.0052}, {"measurement": "solubility (mole fraction)", "setting": "in ethyl acetate, 293.15 K", "result": 0.0061}, {"measurement": "solubility (mole fraction)", "setting": "in ethyl acetate, 298 K", "result": 0.0072}, {"measurement": "solubility (mole fraction)", "setting": "in ethyl acetate, 303.13 K", "result": 0.0083}, {"measurement": "solubility (mole fraction)", "setting": "in ethyl acetate, 308.07 K", "result": 0.0099}, {"measurement": "solubility (mole fraction)", "setting": "in ethyl acetate, 313.15 K", "result": 0.0116}, {"measurement": "solubility (mole fraction)", "setting": "in ethyl acetate, 318.06 K", "result": 0.0133}, {"measurement": "solubility (mole fraction)", "setting": "in ethyl acetate, 323.37 K", "result": 0.0157}, {"measurement": "solubility (mole fraction)", "setting": "in isobutanol, 277.9 K", "result": 0.0015}, {"measurement": "solubility (mole fraction)", "setting": "in isobutanol, 283.25 K", "result": 0.002}, {"measurement": "solubility (mole fraction)", "setting": "in isobutanol, 288.15 K", "result": 0.0026}, {"measurement": "solubility (mole fraction)", "setting": "in isobutanol, 293.04 K", "result": 0.0032}, {"measurement": "solubility (mole fraction)", "setting": "in isobutanol, 298.15 K", "result": 0.0041}, {"measurement": "solubility (mole fraction)", "setting": "in isobutanol, 302.94 K", "result": 0.0052}, {"measurement": "solubility (mole fraction)", "setting": "in isobutanol, 308.1 K", "result": 0.0066}, {"measurement": "solubility (mole fraction)", "setting": "in isobutanol, 313.15 K", "result": 0.0083}, {"measurement": "solubility (mole fraction)", "setting": "in isobutanol, 318.01 K", "result": 0.0105}, {"measurement": "solubility (mole fraction)", "setting": "in isobutanol, 323.33 K", "result": 0.0132}, {"measurement": "solubility (mole fraction)", "setting": "in isopropanol, 278.37 K", "result": 0.0024}, {"measurement": "solubility (mole fraction)", "setting": "in isopropanol, 283.05 K", "result": 0.003}, {"measurement": "solubility (mole fraction)", "setting": "in isopropanol, 288.39 K", "result": 0.0039}, {"measurement": "solubility (mole fraction)", "setting": "in isopropanol, 294.07 K", "result": 0.0051}, {"measurement": "solubility (mole fraction)", "setting": "in isopropanol, 299 K", "result": 0.0063}, {"measurement": "solubility (mole fraction)", "setting": "in isopropanol, 303.17 K", "result": 0.0074}, {"measurement": "solubility (mole fraction)", "setting": "in isopropanol, 308.27 K", "result": 0.0095}, {"measurement": "solubility (mole fraction)", "setting": "in isopropanol, 313.13 K", "result": 0.0118}, {"measurement": "solubility (mole fraction)", "setting": "in isopropanol, 318.15 K", "result": 0.015}, {"measurement": "solubility (mole fraction)", "setting": "in isopropanol, 323.2 K", "result": 0.0183}, {"measurement": "solubility (mole fraction)", "setting": "in methyl acetate, 278.3 K", "result": 0.0042}, {"measurement": "solubility (mole fraction)", "setting": "in methyl acetate, 283.01 K", "result": 0.0049}, {"measurement": "solubility (mole fraction)", "setting": "in methyl acetate, 288.05 K", "result": 0.0058}, {"measurement": "solubility (mole fraction)", "setting": "in methyl acetate, 293.15 K", "result": 0.0068}, {"measurement": "solubility (mole fraction)", "setting": "in methyl acetate, 298 K", "result": 0.008}, {"measurement": "solubility (mole fraction)", "setting": "in methyl acetate, 303.13 K", "result": 0.0095}, {"measurement": "solubility (mole fraction)", "setting": "in methyl acetate, 308.07 K", "result": 0.0111}, {"measurement": "solubility (mole fraction)", "setting": "in methyl acetate, 313.15 K", "result": 0.0131}, {"measurement": "solubility (mole fraction)", "setting": "in methyl acetate, 318.06 K", "result": 0.0152}, {"measurement": "solubility (mole fraction)", "setting": "in methyl acetate, 323.37 K", "result": 0.0177}, {"measurement": "solubility (mole fraction)", "setting": "in n-butanol, 277.9 K", "result": 0.0025}, {"measurement": "solubility (mole fraction)", "setting": "in n-butanol, 283.25 K", "result": 0.003}, {"measurement": "solubility (mole fraction)", "setting": "in n-butanol, 288.15 K", "result": 0.0037}, {"measurement": "solubility (mole fraction)", "setting": "in n-butanol, 293.04 K", "result": 0.0046}, {"measurement": "solubility (mole fraction)", "setting": "in n-butanol, 298.15 K", "result": 0.0057}, {"measurement": "solubility (mole fraction)", "setting": "in n-butanol, 302.94 K", "result": 0.007}, {"measurement": "solubility (mole fraction)", "setting": "in n-butanol, 308.1 K", "result": 0.0089}, {"measurement": "solubility (mole fraction)", "setting": "in n-butanol, 313.15 K", "result": 0.011}, {"measurement": "solubility (mole fraction)", "setting": "in n-butanol, 318.01 K", "result": 0.0134}, {"measurement": "solubility (mole fraction)", "setting": "in n-butanol, 323.33 K", "result": 0.0168}, {"measurement": "solubility (mole fraction)", "setting": "in n-propanol, 278.37 K", "result": 0.0027}, {"measurement": "solubility (mole fraction)", "setting": "in n-propanol, 283.05 K", "result": 0.0033}, {"measurement": "solubility (mole fraction)", "setting": "in n-propanol, 288.39 K", "result": 0.0042}, {"measurement": "solubility (mole fraction)", "setting": "in n-propanol, 293.3 K", "result": 0.0051}, {"measurement": "solubility (mole fraction)", "setting": "in n-propanol, 299 K", "result": 0.0066}, {"measurement": "solubility (mole fraction)", "setting": "in n-propanol, 303.17 K", "result": 0.0079}, {"measurement": "solubility (mole fraction)", "setting": "in n-propanol, 308.27 K", "result": 0.0097}, {"measurement": "solubility (mole fraction)", "setting": "in n-propanol, 313.13 K", "result": 0.0118}, {"measurement": "solubility (mole fraction)", "setting": "in n-propanol, 318.15 K", "result": 0.0146}, {"measurement": "solubility (mole fraction)", "setting": "in n-propanol, 323.2 K", "result": 0.0177}]}]}
